Measurements from publication PMC3150614 (Journal of medicinal chemistry, 2011).

Tests used:
[1] = biological target: T1, Plasmodium falciparum arginase (PFA) (Plasmodium falciparum, UniProt Q8I384); assay type: biochemical; conditions: racemic mixtures
T1 sequence (Q8I384 1-411): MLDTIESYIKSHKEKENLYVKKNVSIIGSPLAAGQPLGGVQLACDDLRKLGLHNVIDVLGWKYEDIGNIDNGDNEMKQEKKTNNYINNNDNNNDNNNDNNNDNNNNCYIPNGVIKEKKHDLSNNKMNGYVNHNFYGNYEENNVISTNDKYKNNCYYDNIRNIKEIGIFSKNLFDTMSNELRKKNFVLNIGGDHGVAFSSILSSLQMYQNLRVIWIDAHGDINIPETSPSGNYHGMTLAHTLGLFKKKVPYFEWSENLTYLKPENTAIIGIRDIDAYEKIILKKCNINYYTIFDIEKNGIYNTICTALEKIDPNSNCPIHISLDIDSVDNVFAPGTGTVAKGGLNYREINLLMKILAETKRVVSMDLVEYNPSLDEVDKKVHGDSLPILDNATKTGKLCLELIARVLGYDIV

[2] = biological target: T2, human arginase I (HAI) (Homo sapiens, UniProt P05089); test: Surface plasmon resonance binding to immobilized HAI; conditions: based on Kd, racemic mixtures
T2 sequence (P05089 1-322): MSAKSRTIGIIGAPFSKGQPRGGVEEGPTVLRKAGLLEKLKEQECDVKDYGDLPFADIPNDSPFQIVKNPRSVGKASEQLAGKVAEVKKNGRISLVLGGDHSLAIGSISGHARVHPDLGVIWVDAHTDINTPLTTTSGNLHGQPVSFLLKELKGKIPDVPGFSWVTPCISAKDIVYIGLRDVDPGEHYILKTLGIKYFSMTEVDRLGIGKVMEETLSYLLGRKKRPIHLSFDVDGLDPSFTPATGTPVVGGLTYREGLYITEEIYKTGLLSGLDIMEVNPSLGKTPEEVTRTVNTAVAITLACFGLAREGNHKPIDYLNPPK

Compound	fold weaker inhibitory potency against PFA than ABH, based on Ki [1] [fold]	fold less tight binding to HAI compared with ABH [2] [fold]
NC(CCCCB(O)O)(C(=O)O)C(F)F (stereo not shown) [FABH, 2-Amino-6-borono-2-(difluoromethyl)hexanoic acid]	200	1889
CC(N)(CCCCB(O)O)C(=O)O (stereo not shown) [MABH, 2-Amino-6-borono-2-methylhexanoic acid]	26	49
